Tests used:
FL-CHK1 = target: T1, FL-CHK1 (Homo sapiens, UniProt O14757); assay: CHK1 assay; format: biochemical; parameters: CHK1^b: unit not given here; details: Table A combinatorial examples; footnote b not given
T1 construct: C-terminally His-tagged full-length human CHK1 (FL-CHK1); 6xHis (C); made in house; host or cells: baculovirus/insect cells
T1 sequence (O14757 1-476): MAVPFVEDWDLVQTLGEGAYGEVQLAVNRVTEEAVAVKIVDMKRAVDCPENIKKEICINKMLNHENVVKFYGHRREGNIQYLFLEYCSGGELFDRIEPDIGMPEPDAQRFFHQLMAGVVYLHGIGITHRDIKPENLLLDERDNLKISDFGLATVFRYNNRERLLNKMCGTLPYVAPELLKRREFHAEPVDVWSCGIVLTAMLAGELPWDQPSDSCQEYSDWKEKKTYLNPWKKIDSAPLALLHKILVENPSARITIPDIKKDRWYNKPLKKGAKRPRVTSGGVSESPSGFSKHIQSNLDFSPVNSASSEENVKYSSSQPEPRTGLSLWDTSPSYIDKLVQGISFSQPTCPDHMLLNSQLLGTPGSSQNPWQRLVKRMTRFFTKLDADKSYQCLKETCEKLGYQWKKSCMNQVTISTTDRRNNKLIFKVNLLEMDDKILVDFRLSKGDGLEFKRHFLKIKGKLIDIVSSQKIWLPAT
Description: CHK-1 Construct for Assay: C-terminally His-tagged full-length human CHK1 (FL-CHK1) was expressed using the baculovirus/insect cell system. It contains 6 histidine residues (6×His-tag) at the C-terminus of the 476 amino acid human CHK1. The protein was purified by conventional chromatographic techniques.
The production of ADP from ATP that accompanies phosphoryl transfer to the synthetic substrate peptide Syntide-2 ([…]) was coupled to oxidation of NADH using phosphoenolpyruvate (PEP) through the actions of pyruvate kinase (PK) and lactic dehydrogenase (LDH). The oxidation of NADH was monitored by following the decrease of absorbance at 340 nm (ε340=6.22 cm^−1 mM^−1) using a HP8452 spectrophotometer. Typical reaction solutions contained: […]; 0.15 mM NADH; 28 units of LDH/ml; 16 units of PK/ml; 3 mM DTT; 0.125 mM Syntide-2; 0.15 mM ATP; 25 mM MgCl2 in 50 mM TRIS, pH 7.5; and 400 mM NaCl. Assays were initiated with 10 nM of FL-CHK1. Ki values were determined by measuring initial enzyme activity in the presence of varying concentrations of test compounds. The data were analyzed using Enzyme Kinetic and Kaleidagraph software.

CDK2/Cyclin A complex = CDK2/Cyclin A complex (Homo sapiens, UniProt P24941); assay: CDK2/Cyclin A assay; format: biochemical; parameters: CDK2^c: concentration or dose not given beside the values; details: Table A combinatorial examples; footnote c not given
Description: CDK2/Cyclin A Construct for Assay: CDK2 was purified using published methodology (Rosenblatt et al., J. Mol. Biol., 230, 1317-1319 (1993)) from insect cells that had been infected with a baculovirus expression vector. Cyclin A was purified from E. coli cells expressing full-length recombinant cyclin A, and a truncated cyclin A construct was generated by limited proteolysis and purified as described previously (Jeffrey et al., Nature, 376, 313-320 (Jul. 27, 1995)).
CDK2/Cyclin A and CDK4/Cyclin D Assays
Cyclin-dependent kinase activity was measured by quantifying the enzyme-catalyzed, time-dependent incorporation of radioactive phosphate from [^32P]ATP into a recombinant fragment of the retinoblastoma protein. Unless noted otherwise, assays were performed in 96-well plates in a total volume of 50 μL, in the presence of 10 mM HEPES (N-[2-hydroxyethyl]piperazine-N′-[2-ethanesulfonic acid]) (pH 7.4), 10 mM MgCl2, 25 μM adenosine triphosphate (ATP), 1 mg/mL ovalbumin, 5 μg/mL leupeptin, 1 mM dithiothreitol, 10 mM β-glycerophosphate, 0.1 mM sodium vanadate, 1 mM sodium fluoride, 2.5 mM ethylene glycol-bis(β-aminoethyl ether)-N,N,N′N′-tetraacetic acid (EGTA), 2% (v/v) dimethylsulfoxide, and 0.03-0.2 μCi [^32P]ATP. The substrate (0.3-0.5 μg) was purified recombinant retinoblastoma protein fragment (Rb) (residues 386-928 of the native retinoblastoma protein; 62.3 kDa, containing the majority of the phosphorylation sites found in the native 106-kDa protein, as well as a tag of six histidine residues for ease of purification). Reactions were initiated with CDK2 (150 nM CDK2/Cyclin A complex) or CDK4 (50 nM CDK4/Cyclin D3 complex), incubated at 30° C., and terminated after 20 minutes by the addition of ethylenediaminetetraacetic acid EDTA) to 250 mM. The phosphorylated substrate was then captured on a nitrocellulose membrane using a 96-well filtration manifold, and unincorporated radioactivity was removed by repeated washing with 0.85% phosphoric acid. Radioactivity was quantified by exposing the dried nitrocellulose membranes to a phosphorimager. Apparent Ki values were measured by assaying enzyme activity in the presence of different compound concentrations and subtracting the background radioactivity measured in the absence of enzyme. The kinetic parameters (kcat, Km for ATP) were measured for each enzyme under the usual assay conditions by determining the dependence of initial rates on ATP concentration. The data were fit to an equation for competitive inhibition using Kaleidagraph (Synergy Software), or were fit to an equation for competitive tight-binding inhibition using the software KineTic (BioKin, Ltd.). Measured Ki values for known inhibitors against CDK4 and CDK2 agreed with published IC50 values. The specific activity of CDK4 was the same whether complexed to full-length cyclin D3 or the truncated Cyclin D3 construct; both complexes also yielded very similar Ki values for selected inhibitors.

| Compound | CHK1^b (FL-CHK1) | CDK2^c (CDK2/Cyclin A complex) |
| --- | --- | --- |
| COc1cc(Nc2nc(N)c(-c3nc(-c4ccc5ccccc5c4)cs3)s2)cc2c1OCCO2 | 9.2 | 11.6 |
| COc1cc(Nc2nc(N)c(-c3nc(-c4cc(C)sc4C)cs3)s2)cc(OC)c1OC | 46.3 | 7.3 |
| COc1cc(Nc2nc(N)c(-c3nc(-c4ccc5c(c4)OCCO5)cs3)s2)cc2c1OCCO2 | 32.9 | 5.4 |
| COc1cc(Nc2nc(N)c(-c3nc(-c4ccc(Cl)c(Cl)c4)cs3)s2)cc(OC)c1OC | 12.1 | 7.3 |
| COc1cc(Nc2nc(N)c(-c3nc(-c4cc(C)c(O)c(C)c4)cs3)s2)cc(OC)c1OC | 27.9 | 28.4 |
| COc1cc(Nc2nc(N)c(-c3nc(-c4c(Cl)c(Cl)nc(Cl)c4Cl)cs3)s2)cc(OC)c1OC | 48.8 | 10.3 |
| COc1cc(OC)c(-c2csc(-c3sc(Nc4cc(OC)c(OC)c(OC)c4)nc3N)n2)c(O)c1Cl | 56 | 11.8 |
| COc1cc(Nc2nc(N)c(-c3nc(-c4ccc5oc6ccccc6c5c4)cs3)s2)cc2c1OCCO2 | 34.1 | 19 |
| COc1cc(Nc2nc(N)c(-c3nc(-c4ccc5c(c4)C(C)(C)CCC5(C)C)cs3)s2)cc2c1OCCO2 | 22.4 | 4.2 |
| COc1cc(Nc2nc(N)c(-c3nc(-c4ccc5c(c4)CCC(=O)N5)cs3)s2)cc2c1OCCO2 | 31.9 | −7.8 |
| CCc1cc2c(cc1-c1csc(-c3sc(Nc4cc(OC)c5c(c4)OCCO5)nc3N)n1)C(C)(C)CCC2(C)C | 10.4 | 13.8 |
| COc1cc(Nc2nc(N)c(-c3nc(-c4sc5ccccc5c4C)cs3)s2)cc2c1OCCO2 | 4.7 | 23.1 |
| COc1cc(Nc2nc(N)c(-c3nc(-c4cc(C(C)(C)C)c(O)c(C(C)(C)C)c4)cs3)s2)cc(OC)c1OC | 25.3 | 5.3 |
| COc1cc(Nc2nc(N)c(-c3nc(-c4sc5ccc(Cl)cc5c4C)cs3)s2)cc2c1OCCO2 [drawing 361] | 48.7 | 7.3 |
| COc1cc(Nc2nc(N)c(-c3nc(-c4sc5ccc(Cl)cc5c4C)cs3)s2)cc2c1OCCO2 [drawing 363] | 38.1 | 12 |

Other lines, results leading:

| CHK1^b (FL-CHK1) | CDK2^c (CDK2/Cyclin A complex) | Compound |
| --- | --- | --- |
| 17.9 | 13.6 | COc1cc(Nc2nc(N)c(-c3nc(-c4c(-c5ccccc5)noc4C)cs3)s2)cc(OC)c1OC |
| 48.3 | 35 | COc1cc(Nc2nc(N)c(-c3nc(-c4ccc(F)cc4)cs3)s2)cc(OC)c1OC |
| 22.3 | 14.6 | COc1cc(Nc2nc(N)c(-c3nc(-c4ccc(OC(=O)c5ccccc5)cc4)cs3)s2)cc(OC)c1OC |
| 31.3 | 14.3 | COc1cc(Nc2nc(N)c(-c3nc(-c4ccc[nH]4)cs3)s2)cc(OC)c1OC |
| 16.5 | −5 | COc1cc(Nc2nc(N)c(-c3nc(-c4ccc(F)c(F)c4)cs3)s2)cc(OC)c1OC |
| 8.8 | 6.6 | COc1cc(Nc2nc(N)c(-c3nc(-c4cccc([N+](=O)[O-])c4)cs3)s2)cc(OC)c1OC |
| 12 | −1.2 | COc1cc(Nc2nc(N)c(-c3nc(-c4ccc(C)cc4C)cs3)s2)cc(OC)c1OC |
| 41.9 | 26.7 | COc1cc(Nc2nc(N)c(-c3nc(-c4ccc(CC(=O)O)s4)cs3)s2)cc(OC)c1OC |
| 23.9 | −12.3 | COc1cc(Nc2nc(N)c(-c3nc(-c4cccc(OC(=O)c5ccccc5)c4)cs3)s2)cc(OC)c1OC |
| 8.5 | 13.9 | COc1cc(Nc2nc(N)c(-c3nc(-c4ccc(C(F)(F)F)cc4)cs3)s2)cc(OC)c1OC |
| 0.5 | 4.6 | COc1cc(Nc2nc(N)c(-c3nc(-c4ccccc4OC(=O)c4ccccc4)cs3)s2)cc(OC)c1OC |
| 21.6 | −2.7 | COc1ccc2nc(-c3ccccc3)cc(-c3csc(-c4sc(Nc5cc(OC)c(OC)c(OC)c5)nc4N)n3)c2c1 |
| 47.7 | −10.3 | COc1cc(Nc2nc(N)c(-c3nc(-c4ccc(O)c(O)c4)cs3)s2)cc(OC)c1OC [drawing 325] |
| 15.3 | −13 | COc1ccc(-c2csc(-c3sc(Nc4cc(OC)c(OC)c(OC)c4)nc3N)n2)cc1 [drawing 336] |
| 48.3 | 3 | COc1cc(Nc2nc(N)c(-c3nc(-c4ccc(O)cc4)cs3)s2)cc(OC)c1OC [drawing 352] |
| 21.1 | −0.2 | COc1cc(Nc2nc(N)c(-c3nc(-c4ccccc4)cs3)s2)cc(OC)c1OC [drawing 358] |
| 29.4 | 1.7 | COc1ccc(-c2csc(-c3sc(Nc4cc(OC)c(OC)c(OC)c4)nc3N)n2)cc1 [drawing 362] |
| 14.1 | −1 | COc1cc(Nc2nc(N)c(-c3nc(-c4ccccc4)cs3)s2)cc(OC)c1OC [drawing 372] |
| 32.5 | −12.1 | COc1cc(Nc2nc(N)c(-c3nc(-c4ccc(F)cc4F)cs3)s2)cc(OC)c1OC [drawing 382] |
